Test results from patent US12661397B2, “Adjuvant comprising a glycoarchaeol and an immunostimulant” (priority 2021, dated 2026).

Legend:
OVA = assay: Anti-OVA antibody ELISA of mouse serum; type: in vivo; conditions: OVA-immunized mice, Day 28; 100 = limit of detection (FIG. 5)
From the text: (§1) Serum of mice immunized with OVA antigen alone (None) or formulated with SLA archaeosomes, other adjuvants (Poly(I:C), Resiquimod (R848), CpG, MPLA, QS-21, Pam3CSK4) or SLA in combination with other adjuvants was collected on Day 28 (7 days post 2nd immunization by intramuscular route) and analyzed for antigen-specific IgG antibodies by ELISA. Grouped data is presented as geometric mean titer+95% Confidence Interval (n=10/group).
as §1, with “(none)” for “(None)”, “immunization)” for “immunization by intramuscular route)”, “IgG2c” for “IgG”
The levels of anti-OVA or anti-HBsAg antibodies (Abs) in mouse serum were quantified by ELISA using 96-well high-binding ELISA plates (Thermo Fisher Scientific, Waltham, MA, USA) coated overnight at room temperature (RT) with 100 μL of 10 μg/mL OVA (Sigma-Aldrich, St. Louis, MO, USA) in PBS or 1 μg/mL HBsAg (Fitzgerald Industries International) in 16 mM sodium carbonate/34 mM sodium bicarbonate buffer, pH 9.6 (Sigma-Aldrich). […] Bound IgG Abs were detected spectrophotometrically at 450 nm. […]

[1] = system: SARS-CoV-2 spike protein (SmT1); assay: SARS-CoV-2 Spike-specific IgG ELISA in hamsters; type: in vivo, Syrian Golden hamsters; conditions: 3 μg SmT1 i.m. Day 0 only, serum Day 34 (FIG. 15 lower)

Molecule: polyinosinic-polycytidylic acid [Poly(I:C), reference compound]
- anti-OVA IgG2c titer (OVA): 5420

Molecule: CC(C)CCCC(C)CCCC(C)CCCC(C)CCOC[C@@H](CO[C@@H]1O[C@H](CO)[C@@H](O[C@@H]2O[C@H](COS(=O)(=O)O)[C@H](O)[C@H](O)[C@H]2O)[C@H](O)[C@H]1O)OCCC(C)CCCC(C)CCCC(C)CCCC(C)C (stereo partly drawn) [SLA, 6′-sulfate-β-D-Galp-(1,4)-β-D-Glcp-(1,1)-archaeol]
- anti-OVA IgG2c titer (OVA): 100
- Anti-spike IgG GMT, prime only regimen [1]: 6,050
